Entries after “also recorded” stand apart in the source; their conditions may differ. Like-named read-outs stand apart in the source and are kept apart here.
How the values were obtained:
[1] = cited from earlier work; for tolerability / safety: humans, phase II clinical trials
[2] = in vivo; cited from earlier work
[3] = target: T1, connexin 43 (Cx43) gap junctions (Homo sapiens, UniProt P17302); details: cited from earlier work
T1 construct: host or cells: astrocyte cancer cell co-cultures

[4] = tested on: control hiPSC-A/-MN co-cultures; experiment: Multielectrode array (MEA) recording of control hiPSC-A/-MN co-cultures; format: cell-based, human; details: for hiPSC-Neuron spike activity: co-cultured 1 week
Excerpt: (§1) Multi-electrode array culture and recordings: Multi-electrode array (MEA) plates (MultiChannel Systems, 60MEA200/30iR-Ti-gr,) with 60 electrodes, including 59 active and 1 reference, and a MEA2100 (MultiChannel Systems) platform were used for the recording of neuronal activity in hiPSC-A/-MN co-cultures as we have previously described^50. Briefly, hiPSC-A from healthy subjects and ALS patients and hiPSC-MN from a single control line were serially co-cultured at densities of 100,000 cells/plate and 500,000 cells/plate, respectively. We analyzed the following electrophysiological parameters: spike rate, burst rate, and percentage of spiking and bursting electrodes (on the overall 59 recording electrodes). The recording of the baseline activity of MEA plates was performed every 3 days over 1-minute period for 2 weeks after initial plating. For pharmacological assays, we performed 5 minutes recordings to capture slower electrophysiological effects of HC blockers 36: baseline MEA activity for 1 minute, activity for 1 minute after 100 μl medium exchange with drug vehicle, and activity for 3 minutes after the exchange of 100 μl of medium containing the compound of interest and the drug vehicle. For analysis purposes, we considered only the electrodes with spike rate >0. Spiking and bursting activity is expressed as the mean of individual MEA plates.

[5] = in vivo, cited from earlier work
[6] = tested on: transwell co-culture of FALS and SALS hiPSC-A with hiPSC-MN; experiment: hiPSC-astrocyte / hiPSC-motor neuron transwell co-culture, neuron survival by immunostaining; format: cell-based, human
Method: Human iPSC-astrocyte and hiPSC-motor neuron co-culture in a transwell system: Human iPSC-MN from control samples were cultured for 56 DIV and then plated in 12 well plates on glass coverslips at a density of 250,000 cells/well. […] Four days later, the inserts with 90 DIV astrocytes were placed on the top of 12-well plates with 60 DIV motor neurons at the bottom. This was considered day 1 of “transwell” co-cultures. Half medium exchanges were performed from both the top and the bottom compartments. Transwell co-culture were otherwise maintained as conventional co-cultures and neurons on glass coverslips were fixed for immunocytochemistry after 14 days.

[7] = in vivo studies; cited from earlier work
brain metastases = details: xenograft and immunocompetent models; cited from earlier work
[8] = tested on: ALS hiPSC-A / control hiPSC-MN co-cultures; experiment: MEA recording of ALS hiPSC-A co-cultured with control hiPSC-MN; format: cell-based, human; details: for ALS astrocyte-mediated hyperexcitability (neuronal spiking and bursting activity): 10 μM, within 5 minutes
Excerpt: as §1

[9] = tested on: FALS and SALS hiPSC-A/MN co-culture; experiment: hiPSC-astrocyte / hiPSC-motor neuron direct co-culture, neuron survival by immunostaining; format: cell-based, human; details: for neuroprotection of control hiPSC-MN in co-culture with ALS hiPSC-A: 3 days
Method: (§2) Human iPSC-astrocyte and hiPSC-motor neuron co-culture: Human iPSC-A form healthy subjects and ALS patients were cultured for 86 DIV and then plated in 24 well plates on glass cover-slips at a density of 20,000 cells/well. Four days later, hiPSC-MN from control samples, cultured for 60 DIV prior to use, were plated on the top of astrocytes at a density of 50,000 cells/well. This was considered day 1 of co-culture. Co-cultures were maintained in motor neuronal medium enriched with 1% FBS for a total of 14 days before fixing for immunocytochemistry. Co-culture medium was changed every third day with half medium exchange. For pharmacological assays on Cx43 HC, we used GAP19 (Tocris, 53533) at a concentration of 340 μM^21,50 and tonabersat (SB-220453) at concentrations of 1 μM, 10 μM and 100 μM^7,8 (Millipore Sigma, SML1354).

Cx43 HC = Cx43 HC (Homo sapiens, UniProt P17302); details: cited from earlier work
hiPSC-MN alone = experiment: MEA recording of hiPSC-MN alone in culture; format: cell-based, human; details: 10 μM
control hiPSC-MN = experiment: Survival of control hiPSC-MN alone or co-cultured with control hiPSC-A; format: cell-based, human; details: several concentrations; hiPSC-MN alone or in co-culture with control hiPSC-A
Method: Human iPSC-motor neuron culture: Briefly, NPC differentiated with the aforementioned spinal cord patterning protocol were cultured for up to 60 DIV with “neuronal differentiating medium”^58,59. To prevent astrocyte overproliferation, neuronal cultures were treated once with 0.02 μM cytosine arabinoside (Ara-C) (Millipore Sigma) for 48 h. While the majority of these cells are Tuj1+/ChAT+, consistent with a spinal motor neuronal phenotype, a smaller subset of neurons (Tuj1+/ChAT−) is also present and consists mainly of GABAergic interneurons^58.
as §2

[10] = tested on: rodent SOD1^G93A astrocyte-induced toxicity; experiment: ALS astrocyte-induced MN toxicity, rodent model of ALS; format: cell-based
gap junction channels = details: cited from earlier work

T1 sequence (P17302 2-382 limits assumed, species assumed): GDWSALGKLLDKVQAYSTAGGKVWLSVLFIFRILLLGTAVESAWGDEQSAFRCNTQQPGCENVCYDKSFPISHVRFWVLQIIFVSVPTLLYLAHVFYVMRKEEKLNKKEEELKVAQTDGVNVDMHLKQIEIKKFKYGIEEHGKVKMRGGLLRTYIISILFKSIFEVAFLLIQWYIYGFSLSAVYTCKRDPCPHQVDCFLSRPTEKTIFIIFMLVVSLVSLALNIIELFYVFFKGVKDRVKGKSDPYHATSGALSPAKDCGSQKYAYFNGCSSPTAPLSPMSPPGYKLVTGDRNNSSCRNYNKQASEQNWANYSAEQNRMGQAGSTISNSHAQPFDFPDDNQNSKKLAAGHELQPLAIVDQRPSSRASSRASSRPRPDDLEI
Sequence of Cx43 HC (P17302 2-382 limits assumed): as the sequence (P17302 2-382 limits assumed, species assumed) above

Molecule: CC(=O)c1ccc2c(c1)[C@H](NC(=O)c1ccc(F)c(Cl)c1)[C@H](O)C(C)(C)O2 [tonabersat, N-[(3S,4S)-6-acetyl-3-hydroxy-2,2-dimethyl-3,4-dihydro-2H-1-benzopyran-4-yl]-3-chloro-4-fluorobenzamide]
- tolerability / safety [1]: well tolerated and safe
- tolerability / safety ([1]; listed as Tonabersat): excellent safety profile
- effect on attacks of migraine aura ([1]; study by Hauge and colleagues): preventive effect
- efficacy on non-aura attacks ([1]; study by Hauge and colleagues): no efficacy
- neurogenic extravasation of plasma protein in the meninges [2]: reduce neurogenic extravasation of plasma protein in the meninges
- release of IFNα and TNF ([3]; astrocyte cancer cell co-cultures): inhibited
- dye transfer from astrocytes to cancer cells [3]: inhibited dye transfer from astrocytes to cancer cells
- neuronal spiking and bursting activity ([4]; 1 μM, 5 minutes after application, compared with 10 μM): less effective
- hiPSC-Neuron spike activity ([4]; 10 μM, 1 minute after application): reduction of hiPSC-Neuron spike activity
- neuronal spiking and bursting activity ([4]; 10 μM, within 5 minutes of application): significantly reduced neuronal spiking and bursting activity
- hiPSC-Neuron spike activity ([4]; 100 μM, 1 minute after application): reduction of hiPSC-Neuron spike activity
- hiPSC-Neuron spike rate, burst rate, number of electrodes firing and bursting ([4]; hiPSC-Astro/Neuron co-culture): reduced hiPSC-Neuron spike rate, burst rate, number of electrodes firing and bursting
- hiPSC-Neuron firing ([4]; hiPSC-Astro/Neuron co-culture, 1 and 5 minutes after application): reduced hiPSC-Neuron firing
- cortical spreading depression [5]: inhibitory effects on cortical spreading depression
- cortical spreading depression ([5]; listed as Tonabersat): antagonize cortical spreading depression
- neuroprotection of hiPSC-MN (ChAT+, Isl1+) ([6]; transwell co-culture, 14 days): neuroprotective effect of tonabersat was also seen; also recorded: confirms dose-dependent neuroprotection
- rescue of non-motor neuron cell death ([6]; transwell culture with FALS and SALS hiPSC-A): can be rescued with tonabersat
- seizures [7]: inhibitory effects
- brain metastases (brain metastases): inhibited brain metastases
- levels of spiking and bursting activity after treatment versus untreated control co-cultures ([8]; 10 μM acute treatment, day 6 of co-culture): not significantly different
- ALS astrocyte-mediated hyperexcitability (neuronal spiking and bursting activity) ([8]; day 6 of co-culture): significantly reduced
- ALS astrocyte-mediated hyperexcitability (neuronal spiking and bursting activity) ([8]; day 6 of co-culture, listed as Tonabersat): significant inhibition
- concentration necessary to reduce ALS hiPSC-astrocyte mediated neuron spike activity ([8]; MEA, co-cultured 1 week, 1 minute after application): 100 µM
- rescue of ChAT MNs ([9]; 1 μM, direct co-culture, 14 days): rescues ChAT MNs
- neuroprotection of control hiPSC-MN in co-culture with ALS hiPSC-A ([9]; 10 μM, early (day 5 to day 8 of co-culture)): neuroprotection of control hiPSC-MN; also recorded: Significant neuroprotection
- neuroprotection of control hiPSC-MN in co-culture with ALS hiPSC-A ([9]; 10 μM, late (day 11 to day 14 of co-culture)): This protection did not occur; also recorded: Significant neuroprotection was appreciated after early but not late exposure
- rescue of ChAT MNs ([9]; 10 μM, direct co-culture, 14 days): rescues ChAT MNs
- neuroprotection of hiPSC-MN ([9]; 100 μM, direct co-culture, 14 days): not neuroprotective
- protection of non-MN populations (ChAT− and Isl1− neurons) ([9]; direct co-culture with FALS and SALS hiPSC-A): protective to non-MN populations; also recorded: can be rescued with tonabersat
- neuroprotection of hiPSC-MN (ChAT, Isl-1) from ALS astrocyte-mediated death ([9]; direct co-culture, 1 μM, 10 μM and 100 μM, 14 day incubation): can protect MNs from ALS astrocyte-induced excitotoxicity; also recorded: protects hiPSC-MN from ALS astrocyte-mediated death in a dose-dependent manner; also recorded: dose-dependent neuroprotection
- concentrations that specifically block Cx43 HC (Cx43 HC; low concentrations): 1 to 10 µM
- neuronal electrophysiological activity (hiPSC-MN alone): did not observe any change in neuronal electrophysiological activity; also recorded: does not result in an alteration of electrophysiological activity
- hiPSC-MN survival (ChAT+ and Isl1+) (control hiPSC-MN): did not have any effect on hiPSC-MN survival; also recorded: no effect on ChAT+ and Isl1+ control hiPSC-MN survival

Molecule: KQIEIKKFK [Gap19, nonapeptide derived from the cytoplasmic loop of Cx43]
- neuronal firing ([4]; hiPSC-Astro/Neuron co-culture, 1 minute after application): reduced neuronal firing
- neuroprotection against ALS astrocyte-induced MN toxicity [10]: can be neuroprotective
- effect on gap junction channels (gap junction channels): without affecting gap junction channels
- inhibition of astroglial Cx43 hemichannels (Cx43 HC): inhibits astroglial Cx43 hemichannels in a dose-dependent manner
